Consider 27 compounds from US8008291B2 (Mimetica Pty Ltd, priority 2008, dated 2011).

SMILES strings stand for the structures. A value given as a limit tells only on which side of the number the result lay.

In general, IC50 refers to the concentration at which inhibition is half-maximal.

T1 sequence (P33032 whole entry): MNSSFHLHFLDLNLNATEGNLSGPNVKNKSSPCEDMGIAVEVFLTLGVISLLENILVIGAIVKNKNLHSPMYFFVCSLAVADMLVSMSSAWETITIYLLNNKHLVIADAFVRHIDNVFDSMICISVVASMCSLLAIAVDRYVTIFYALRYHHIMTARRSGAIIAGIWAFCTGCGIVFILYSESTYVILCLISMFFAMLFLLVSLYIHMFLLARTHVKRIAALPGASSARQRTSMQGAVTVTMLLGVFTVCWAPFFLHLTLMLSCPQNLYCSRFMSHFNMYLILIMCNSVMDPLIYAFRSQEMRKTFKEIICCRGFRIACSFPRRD

This assay has as its target T1, human MC5R (hMC5R) (Homo sapiens, UniProt P33032).
T1 construct: purchased Perkin Elmer RBXMC5M400UA
The assay can be described thus: Human MC5R radioligand binding assay (membranes, [125I] NDP-MSH displacement). The settings on record: hMC5R binding; tested as trifluoroacetate or hydrochloride salts, or free bases; read-out: MC5R radioligand IC50. An outline of the steps:
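Displacement of [125I]NDP-MSH (radioiodinated in house, HPLC-purified) from hMC5R membranes by test compound measured after 1 hr incubation at 37° C.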
In the case of `CC(C)c1ccc(/C=C/C(=O)NC[C@@H]2CCN(CC(c3ccccc3)c3ccccc3)C(=O)[C@H](CCN3CCCCC3)N2)cc1` [Compound 396, (E)-N-(((3S,5S)-1-(2,2-diphenylethyl)-2-oxo-3-(2-(piperidin-1-yl)ethyl)-1,4-diazepan-5-yl)methyl)-3-(4-isopropylphenyl)acrylamide], the IC50 is under 100 nM.

`CC(C)c1ccc(/C=C/C(=O)NC[C@@H]2CCN(CC(c3ccccc3)c3ccccc3)C(=O)[C@H](CCN)N2)cc1` [Compound 397, (E)-N-(((3S,5S)-3-(2-aminoethyl)-1-(2,2-diphenylethyl)-2-oxo-1,4-diazepan-5-yl)methyl)-3-(4-isopropylphenyl)acrylamide]: the IC50 is under 1000 nM.

For the compound `Cc1ccc(/C=C/C(=O)NC[C@@H]2CCN(CC(c3ccccc3)c3ccccc3)C(=O)[C@H](CCN3CCCCC3)N2)c(C)c1` [Compound 398, (E)-3-(2,4-dimethylphenyl)-N-(((3S,5S)-1-(2,2-diphenylethyl)-2-oxo-3-(2-(piperidin-1-yl)ethyl)-1,4-diazepan-5-yl)methyl)acrylamide], the IC50 is under 100 nM.

On to `Cc1ccc(/C=C/C(=O)NC[C@@H]2CCN(CC(c3ccccc3)c3ccccc3)C(=O)[C@H](CCN)N2)c(C)c1` [Compound 399, (E)-N-(((3S,5S)-3-(2-aminoethyl)-1-(2,2-diphenylethyl)-2-oxo-1,4-diazepan-5-yl)methyl)-3-(2,4-dimethylphenyl)acrylamide], for which the IC50 was under 1000 nM.

Regarding `O=C(/C=C/c1ccc(F)cc1F)NC[C@@H]1CCN(CC(c2ccccc2)c2ccccc2)C(=O)[C@H](CCN2CCCCC2)N1` [Compound 400, (E)-3-(2,4-difluorophenyl)-N-(((3S,5S)-1-(2,2-diphenylethyl)-2-oxo-3-(2-(piperidin-1-yl)ethyl)-1,4-diazepan-5-yl)methyl)acrylamide], the IC50 is under 100 nM.

With `NCC[C@@H]1N[C@H](CNC(=O)/C=C/c2ccc(F)cc2F)CCN(CC(c2ccccc2)c2ccccc2)C1=O` [Compound 401, (E)-N-(((3S,5S)-3-(2-aminoethyl)-1-(2,2-diphenylethyl)-2-oxo-1,4-diazepan-5-yl)methyl)-3-(2,4-difluorophenyl)acrylamide], the IC50 was under 1000 nM.

Consider `O=C(/C=C/c1ccc(Cl)cc1)NC[C@@H]1CCN(CC(c2ccccc2)c2ccccc2)C(=O)[C@H](CNC(=O)C2CCCCC2)N1` [Compound 402, N-(((2S,7S)-7-(((E)-3-(4-chlorophenyl)acrylamido)methyl)-4-(2,2-diphenylethyl)-3-oxo-1,4-diazepan-2-yl)methyl)cyclohexanecarboxamide], for which the IC50 is under 10000 nM.

Turning to `O=C(/C=C/c1ccc(Cl)cc1)NC[C@@H]1CCN(CC(c2ccccc2)c2ccccc2)C(=O)[C@H](CCN2CCOCC2)N1` [Compound 403, (E)-3-(4-chlorophenyl)-N-(((3S,5S)-1-(2,2-diphenylethyl)-3-(2-morpholinoethyl)-2-oxo-1,4-diazepan-5-yl)methyl)acrylamide], the IC50 is under 100 nM.

For the compound `Cc1ccc(C)n1CC[C@@H]1N[C@H](CNC(=O)/C=C/c2ccc(Cl)cc2)CCN(CC(c2ccccc2)c2ccccc2)C1=O` [Compound 404, (E)-3-(4-chlorophenyl)-N-(((3S,5S)-3-(2-(2,5-dimethyl-1 H-pyrrol-1-yl)ethyl)-1-(2,2-diphenylethyl)-2-oxo-1,4-diazepan-5-yl)methyl)acrylamide], the IC50 is under 1000 nM.

As to `CC1CCC(C)N1CC[C@@H]1N[C@H](CNC(=O)/C=C/c2ccc(Cl)cc2)CCN(CC(c2ccccc2)c2ccccc2)C1=O` (stereo partly drawn) [Compound 405, (E)-3-(4-chlorophenyl)-N-(((3S,5S)-3-(2-(2,5-dimethylpyrrolidin-1-yl)ethyl)-1-(2,2-diphenylethyl)-2-oxo-1,4-diazepan-5-yl)methyl)acrylamide], the IC50 is under 100 nM.

For the compound `CC[C@H](CN1CC[C@@H](CNC(=O)/C=C/c2ccc(Cl)cc2)N[C@@H](CCN2CCCC2)C1=O)c1ccccc1` [Compound 407, (E)-3-(4-chlorophenyl)-N-(((3S,5S)-2-oxo-1-((S)-2-phenylbutyl)-3-(2-(pyrrolidin-1-yl)ethyl)-1,4-diazepan-5-yl)methyl)acrylamide], the IC50 is under 100 nM.

With `CC[C@H](CN1CC[C@@H](CNC(=O)/C=C/c2ccc(Cl)cc2)N[C@@H](CCNC(C)C)C1=O)c1ccccc1` [Compound 408, (E)-3-(4-chlorophenyl)-N-(((3S,5S)-3-(2-(isopropylamino)ethyl)-2-oxo-1-((S)-2-phenylbutyl)-1,4-diazepan-5-yl)methyl)acrylamide], the IC50 is under 100 nM.

`CC[C@H](CN1CC[C@@H](CNC(=O)c2ccc3cc(Cl)ccc3c2)N[C@@H](CCN2CCCC2)C1=O)c1ccccc1` [Compound 409, 6-chloro-N-(((3S,5S)-2-oxo-1-((S)-2-phenylbutyl)-3-(2-(pyrrolidin-1-yl)ethyl)-1,4-diazepan-5-yl)methyl)-2-naphthamide]: the concentration for half-maximal inhibition (IC50) is under 10 nM.

`CC[C@H](CN1CC[C@@H](CNC(=O)c2ccc(Cl)c(Cl)c2)N[C@@H](CCN2CCCCC2)C1=O)c1ccccc1` [Compound 410, 3,4-dichloro-N-(((3S,5S)-2-oxo-1-((S)-2-phenylbutyl)-3-(2-(piperidin-1-yl)ethyl)-1,4-diazepan-5-yl)methyl)benzamide]: the concentration for half-maximal inhibition (IC50) is under 100 nM.

Consider `CC[C@H](CN1CC[C@@H](CNC(=O)c2ccc(Cl)c(Cl)c2)N[C@@H](CCN2CCCC2)C1=O)c1ccccc1` [Compound 411, 3,4-dichloro-N-(((3S,5S)-2-oxo-1-((S)-2-phenylbutyl)-3-(2-(pyrrolidin-1-yl)ethyl)-1,4-diazepan-5-yl)methyl)benzamide], for which the IC50 was under 100 nM.

Turning to `O=C(NC[C@@H]1CCN(CC(c2ccccc2)c2ccccc2)C(=O)[C@H](CCN2CCCCC2)N1)OCc1ccccc1` [Compound 412, benzyl ((3S,5S)-1-(2,2-diphenylethyl)-2-oxo-3-(2-(piperidin-1-yl)ethyl)-1,4-diazepan-5-yl)methylcarbamate], the IC50 is under 1000 nM.

For the compound `O=C(/C=C/c1ccc(Br)cc1)NC[C@@H]1CCN(CC(c2ccccc2)c2ccccc2)C(=O)[C@H](CCN2CCCCC2)N1` [Compound 413, (E)-3-(4-bromophenyl)-N-(((3S,5S)-1-(2,2-diphenylethyl)-2-oxo-3-(2-(piperidin-1-yl)ethyl)-1,4-diazepan-5-yl)methyl)acrylamide], the IC50 is under 10 nM.

Turning to `O=C(NC[C@@H]1CCN(CC(c2ccccc2)c2ccccc2)C(=O)[C@H](CCN2CCCCC2)N1)c1cc(-c2ccc(Cl)cc2)on1` [Compound 414, 5-(4-chlorophenyl)-N-(((3S,5S)-1-(2,2-diphenylethyl)-2-oxo-3-(2-(piperidin-1-yl)ethyl)-1,4-diazepan-5-yl)methyl)isoxazole-3-carboxamide], the IC50 is under 100 nM.

For `CC[C@H](CN1CC[C@@H](CNC(=O)c2ccc3cc(Cl)ccc3c2)N[C@@H](CN2CCCCC2)C1=O)c1ccccc1` [Compound 415, 6-chloro-N-(((3S,5S)-2-oxo-1-((S)-2-phenylbutyl)-3-(piperidin-1-ylmethyl)-1,4-diazepan-5-yl)methyl)-2-naphthamide], the IC50 is under 100 nM.

For `CC[C@H](CN1CC[C@@H](CNC(=O)c2ccc(Cl)c(Cl)c2)N[C@@H](CN2CCCCC2)C1=O)c1ccccc1` [Compound 416, 3,4-dichloro-N-(((3S,5S)-2-oxo-1-((S)-2-phenylbutyl)-3-(piperidin-1-ylmethyl)-1,4-diazepan-5-yl)methyl)benzamide], the IC50 was under 1000 nM.

As to `CC[C@H](CN1CC[C@@H](CNC(=O)c2ccc3cc(Cl)ccc3c2)N[C@@H](CCCN2CCCCC2)C1=O)c1ccccc1` [Compound 417, 6-chloro-N-(((3S,5S)-2-oxo-1-((S)-2-phenylbutyl)-3-(3-(piperidin-1-yl)propyl)-1,4-diazepan-5-yl)methyl)-2-naphthamide], the IC50 was under 100 nM.

For the compound `CC[C@H](CN1CC[C@@H](CNC(=O)c2ccc(Cl)c(Cl)c2)N[C@@H](CCCN2CCCCC2)C1=O)c1ccccc1` [Compound 418, 3,4-dichloro-N-(((3S,5S)-2-oxo-1-((S)-2-phenylbutyl)-3-(3-(piperidin-1-yl)propyl)-1,4-diazepan-5-yl)methyl)benzamide], the IC50 was under 100 nM.

Consider `CC(C)(NC(=O)/C=C/c1ccc(Cl)cc1)[C@@H]1CCN(CC(c2ccccc2)c2ccccc2)C(=O)[C@H](CCN)N1` [Compound 419, (E)-N-(2-((3S,5S)-3-(2-aminoethyl)-1-(2,2-diphenylethyl)-2-oxo-1,4-diazepan-5-yl)propan-2-yl)-3-(4-chlorophenyl)acrylamide], for which the IC50 is under 1000 nM.

For `CC(C)(NC(=O)/C=C/c1ccc(Cl)cc1)[C@@H]1CCN(CC(c2ccccc2)c2ccccc2)C(=O)[C@H](CCN2CCCCC2)N1` [Compound 420, (E)-3-(4-chlorophenyl)-N-(2-((3S,5S)-1-(2,2-diphenylethyl)-2-oxo-3-(2-(piperidin-1-yl)ethyl)-1,4-diazepan-5-yl)propan-2-yl)acrylamide], the IC50 is under 1000 nM.

As for `C[C@@H](CN1CC[C@@H](CNC(=O)c2ccc3ccccc3c2)N[C@@H](CCN)C1=O)c1ccc(Cl)cc1` [Compound 421, N-(((3S,5S)-3-(2-aminoethyl)-1-((R)-2-(4-chlorophenyl)propyl)-2-oxo-1,4-diazepan-5-yl)methyl)-2-naphthamide], the IC50 is under 10000 nM.

`CC(CN1CC[C@@H](CNC(=O)c2ccc3ccccc3c2)N[C@@H](CCN)C1=O)c1ccc(Cl)cc1` (stereo partly drawn) [Compound 422, N-(((3S,5S)-3-(2-aminoethyl)-1-(2-(4-chlorophenyl)propyl)-2-oxo-1,4-diazepan-5-yl)methyl)-2-naphthamide]: the IC50 was under 10000 nM.

Regarding `C[C@@H](CN1CC[C@@H](CNC(=O)c2ccc3ccccc3c2)N[C@@H](CCN2CCCCC2)C1=O)c1ccc(Cl)cc1` [Compound 423, N-(((3S,5S)-1-((R)-2-(4-chlorophenyl)propyl)-2-oxo-3-(2-(piperidin-1-yl)ethyl)-1,4-diazepan-5-yl)methyl)-2-naphthamide], the half-maximal inhibitory concentration (IC50) is under 10000 nM.
